Experimental data reported in the supplement of paper PMC11962398.

Columns and labels:
[1] = compound: T1, C[C@H]1CNCCN1c1nccc(-c2noc3c2CCC[C@@]32CCCc3sc(N)c(C#N)c32)n1 [BI-2493]; experiment: 1 - AUC of viability dose-response curve (sensitivity) (fraction); higher = more sensitive; conditions: 5 days
Procedure: (§1)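 PRISM pooled barcoded cancer cell line viability screen (Broad Institute) with BI-2493 at 8 doses in threefold dilutions from 0.00457 to 10 µmol/L, 5-day treatment; curves fitted per cell line. IC50 is undefined (placeholder) for resistant lines. AUC is capped at 1, and sensitivity is reported as 1 − AUC.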

[2] = compound: T1, BI-2493; conditions: 5 days
Procedure: as §1

Row | Test System | 1 - AUC of viability dose-response curve [1] | IC50 of cell viability [2] [µM]
1 | PEA1_OVARY | 0.0757 | 5.96
2 | PECAPJ15_UPPER_AERODIGESTIVE_TRACT | 0.125 | 5.35
3 | PECAPJ41CLONED2_UPPER_AERODIGESTIVE_TRACT | 0.0352 | 8.74
4 | PECAPJ49_UPPER_AERODIGESTIVE_TRACT | 0.0961 | 5.93
5 | PEDS005TPFAD_KIDNEY | 0.199 | 4.24
6 | PEDS005TSUSP_KIDNEY | 0.0633 | 7.58
7 | PEDS015T_SOFT_TISSUE | 0.0985 | > 10
8 | PF382_HAEMATOPOIETIC_AND_LYMPHOID_TISSUE | 0.102 | 5.53
9 | PFSK1_CENTRAL_NERVOUS_SYSTEM | 0.063 | > 10
10 | PK1_PANCREAS | 0.131 | 6.81
11 | PK8_PANCREAS | 0.161 | 2.17
12 | PK45H_PANCREAS | 0.168 | 4.3
13 | PK59_PANCREAS | 0.336 | 1.05
14 | PL21_HAEMATOPOIETIC_AND_LYMPHOID_TISSUE | 0.358 | 0.451
15 | PLCPRF5_LIVER | 0.132 | 5.13
16 | PMFKO14_LARGE_INTESTINE | 0.106 | 7.87
17 | PSN1_PANCREAS | 0.137 | 9.23
18 | QGP1_PANCREAS | 0.253 | 1.55
19 | RBE_BILIARY_TRACT | 0.243 | 2.47
20 | RCC10RGB_KIDNEY | 0.0818 | 6.59
21 | RCHACV_HAEMATOPOIETIC_AND_LYMPHOID_TISSUE | 0.198 | 4.98
22 | RCK8_HAEMATOPOIETIC_AND_LYMPHOID_TISSUE | 0.0825 | 4.38
23 | RCM1_LARGE_INTESTINE | 0.271 | 1.73
24 | RDES_BONE | 0.0344 | 9.6

Row | Test System | 1 - AUC of viability dose-response curve [1] | IC50 of cell viability [2] [µM]
25 | RD_SOFT_TISSUE | 0.0771 | 9.09
26 | RERFGC1B_STOMACH | 0.262 | 3.33
27 | RERFLCAD1_LUNG | 0.18 | 4.27
28 | RERFLCAD2_LUNG | 0.12 | 4.39
29 | RERFLCKJ_LUNG | 0.0525 | 8.19
30 | RERFLCMS_LUNG | 0.037 | 8.02
31 | RH4_SOFT_TISSUE | 0.0866 | 6.58
32 | RH28_SOFT_TISSUE | 0.0907 | 5.97
33 | RH30_SOFT_TISSUE | 0.0138 | 9.22
34 | RH36_SOFT_TISSUE | 0.119 | 6.76
35 | RI1_HAEMATOPOIETIC_AND_LYMPHOID_TISSUE | 0.106 | 6.4
36 | RKO_LARGE_INTESTINE | 0.0968 | 7.43
37 | RL952_ENDOMETRIUM | 0.108 | 3.87
38 | RL_HAEMATOPOIETIC_AND_LYMPHOID_TISSUE | 0.0967 | 4.21
39 | RMGI_OVARY | 0.0414 | 9.09
40 | RMSYM_SOFT_TISSUE | 0.119 | 6.04
41 | RMUGS_OVARY | 0.122 | 5.26
42 | RO82W1_THYROID | 0.123 | 5.35
43 | RPMI7951_SKIN | 0.0692 | 6.06
44 | RPMI8402_HAEMATOPOIETIC_AND_LYMPHOID_TISSUE | 0.0899 | 6.85
45 | RT4_URINARY_TRACT | 0.147 | 5.51
46 | RT112_URINARY_TRACT | 0.281 | 1.22
47 | RVH421_SKIN | 0.133 | 5.43
48 | S117_THYROID | 0.0998 | 4.21

Row | Test System | 1 - AUC of viability dose-response curve [1] | IC50 of cell viability [2] [µM]
49 | SAOS2_BONE | 0.0212 | 9.58
50 | SBC5_LUNG | 0.122 | 5.31
51 | SCC3_HAEMATOPOIETIC_AND_LYMPHOID_TISSUE | 0.0243 | 8.83
52 | SCC9_UPPER_AERODIGESTIVE_TRACT | 0.11 | 6.27
53 | SCC25_UPPER_AERODIGESTIVE_TRACT | 0.128 | 5.3
54 | SCLC21H_LUNG | 0.0414 | 7.84
55 | SF126_CENTRAL_NERVOUS_SYSTEM | 0.0902 | 4.43
56 | SF295_CENTRAL_NERVOUS_SYSTEM | 0.0199 | 9.02
57 | SF539_CENTRAL_NERVOUS_SYSTEM | 0.173 | 9.12
58 | SG231_BILIARY_TRACT | 0.286 | 2.09
59 | SH4_SKIN | 0.0518 | 6.75
60 | SH10TC_STOMACH | 0.125 | 4.52
61 | SHMAC5_PROSTATE | 0.118 | 3.3
62 | SIMA_AUTONOMIC_GANGLIA | 0.159 | > 10
63 | SJSA1_BONE | 0.095 | 7.93
64 | SKES1_BONE | 0.128 | 6.06
65 | SKGII_ENDOMETRIUM | 0.0529 | 8.23
66 | SKGI_ENDOMETRIUM | 0.142 | 4.89
67 | SKGT2_STOMACH | 0.00814 | 9.72
68 | SKGT4_OESOPHAGUS | 0.403 | 0.494
69 | SKLMS1_SOFT_TISSUE | 0.0071 | 9.65
70 | SKLU1_LUNG | 0.329 | 1
71 | SKM1_HAEMATOPOIETIC_AND_LYMPHOID_TISSUE | 0.446 | 0.316
72 | SKMEL2_SKIN | 0.0065 | 9.59

Row | Test System | 1 - AUC of viability dose-response curve [1] | IC50 of cell viability [2] [µM]
73 | SKMEL5_SKIN | 0.0596 | 7.01
74 | SKMEL24_SKIN | 0.157 | 9.18
75 | SKMEL28_SKIN | 0.217 | 4.05
76 | SKMEL30_SKIN | 0.0152 | 9.15
77 | SKMES1_LUNG | 0.0245 | 8.98
78 | SKNAS_AUTONOMIC_GANGLIA | 0.086 | 4.32
79 | SKNBE2_AUTONOMIC_GANGLIA | 0.206 | 4.48
80 | SKNDZ_AUTONOMIC_GANGLIA | 0.012 | 9.28
81 | SKNFI_AUTONOMIC_GANGLIA | 0.112 | 5.39
82 | SKNMC_BONE | 0.193 | 7.83
83 | SKNSH_AUTONOMIC_GANGLIA | 0.25 | > 10
84 | SKN_ENDOMETRIUM | 0.101 | 6.7
85 | SKOV3_OVARY | 0.0812 | 7.06
86 | SKPNDW_BONE | 0.0174 | 9.05
87 | SKUT1_SOFT_TISSUE | 0.207 | 4.83
88 | SMSCTR_SOFT_TISSUE | 0.0341 | > 10
89 | SNGM_ENDOMETRIUM | 0.0648 | 7.12
90 | SNU1_STOMACH | 0.102 | 5.53
91 | SNU46_UPPER_AERODIGESTIVE_TRACT | 0.192 | 5.4
92 | SNU61_LARGE_INTESTINE | 0.307 | 0.465
93 | SNU81_LARGE_INTESTINE | 0.129 | 9.39
94 | SNU119_OVARY | 0.162 | 5.65
95 | SNU182_LIVER | 0.0527 | > 10
